Values after ≈ are worked out from the molar mass of the structure shown.
Legend:
Type in all cases: functional
Staphylococcus aureus [1] = assay: Antimicrobial activity against Staphylococcus aureus ATCC 29213
Acinetobacter baumannii = assay: Antimicrobial activity against Acinetobacter baumannii ATCC 19606
Staphylococcus aureus [2] = assay: Antimicrobial activity against methicillin-resistant Staphylococcus aureus ATCC 33591

Structure (SMILES) | MIC (Staphylococcus aureus [1]) [µg/mL] | MIC (Acinetobacter baumannii) [µg/mL] | MIC (Staphylococcus aureus [2]) [µg/mL]
COc1c(Br)cc(/C=C2\O[C@H]([C@@H](Cl)CCNC(=N)N)NC2=O)cc1Br | 12.5 (≈ 25.2 µM) | 100 (≈ 201 µM) | 20 (≈ 40.3 µM)
COc1c(Br)cc(/C=C2\O[C@H](CCCNC(=N)N)NC2=O)cc1Br | 32 (≈ 69.2 µM) | > 128 | 32 (≈ 69.2 µM)
CCCCCC1NC(=O)/C(=C/c2ccccc2)O1 (stereo not drawn) | 64 (≈ 261 µM) | > 128 | 128 (≈ 522 µM)
CCCCCC1NC(=O)/C(=C/c2ccc(C)cc2)O1 (stereo not drawn) | 32 (≈ 123 µM) | > 128 | > 128
CCCCCC1NC(=O)/C(=C/c2ccc(C(C)(C)C)cc2)O1 (stereo not drawn) | > 128 | > 128 | > 128
CCCCCC1NC(=O)/C(=C/c2ccc(F)cc2)O1 (stereo not drawn) | > 128 | > 128 | > 128
CCCCCC1NC(=O)/C(=C/c2ccc(Cl)cc2)O1 (stereo not drawn) | > 128 | > 128 | > 128
CCCCCC1NC(=O)/C(=C/c2ccc(C(F)(F)F)cc2)O1 (stereo not drawn) | 16 (≈ 51.1 µM) | > 128 | 16 (≈ 51.1 µM)
CCCCCC1NC(=O)/C(=C/c2ccccc2[N+](=O)[O-])O1 (stereo not drawn) | > 128 | > 128 | > 128
CCCCCC1NC(=O)/C(=C/c2cc(Br)c(OC)c(Br)c2)O1 (stereo not drawn) | 16 (≈ 36.9 µM) | > 128 | 32 (≈ 73.9 µM)
CCCCCC1NC(=O)/C(=C/c2ccc(OC)cc2)O1 (stereo not drawn) | > 128 | > 128 | > 128
CCCCCC1NC(=O)/C(=C/c2ccc([N+](=O)[O-])cc2)O1 (stereo not drawn) | 32 (≈ 110 µM) | > 128 | 32 (≈ 110 µM)
CC(=O)NC[C@H]1CN(c2ccc(N3CCOCC3)c(F)c2)C(=O)O1 [LINEZOLID] | 0.5 (≈ 1.48 µM) | > 128 | 1 (≈ 2.96 µM)
CN(C)[C@@H]1C(O)=C(C(N)=O)C(=O)[C@@]2(O)C(O)=C3C(=O)c4c(O)cccc4[C@@](C)(O)[C@H]3C[C@@H]12 [TETRACYCLINE] | 0.25 (≈ 0.563 µM) | 2 (≈ 4.5 µM) | 128 (≈ 288 µM)
CN[C@H](CC(C)C)C(=O)N[C@H]1C(=O)N[C@@H](CC(N)=O)C(=O)N[C@H]2C(=O)N[C@H]3C(=O)N[C@H](C(=O)N[C@H](C(=O)O)c4cc(O)cc(O)c4-c4cc3ccc4O)[C@H](O)c3ccc(c(Cl)c3)Oc3cc2cc(c3O[C@@H]2O[C@H](CO)[C@@H](O)[C@H](O)[C@H]2O[C@H]2C[C@](C)(N)[C@H](O)[C@H](C)O2)Oc2ccc(cc2Cl)[C@H]1O [VANCOMYCIN] |  | > 128 | 
